{"source": "paper PMC3626398", "about": "“Strategies Aimed at Nox4 Oxidase Inhibition Employing Peptides from Nox4 B-Loop and C-Terminus and p22^phox N-Terminus: An Elusive Target” (International Journal of Hypertension, 2013)", "key": {"Nox4": {"system": "Nox4", "assay": "H2O2-generating activity of lysed COS-Nox4 cells (Amplex Red fluorescence)", "assay_type": "biochemical, human", "settings": "for inhibition of H2O2 production (Nox4 activity): COS-Nox4 cell lysate preincubated with peptide 1 to 50 μM for 15 min at 24°C, mean of 3 experiments (Figure 1(f)); for effect on Nox4 activity (H2O2 production): COS-Nox4 cell lysate preincubated with various concentrations of C-terminal tail peptide for 15 min at 24°C, mean of 3 experiments (Figure 2(b)); for inhibition of Nox4 activity (Nox4-derived H2O2 production): COS-Nox4 cell lysate preincubated with various concentrations of p22phox N-terminal peptide for 15 min at 24°C, mean of 3 experiments (Figure 3(b),(c))", "experimental": "Cell transfection was carried out using Lipofectamine LTX and Plus reagent (Invitrogen, Carlsbad, CA, USA), according to the manufacturer's instructions. COS-22 cells were transiently transfected with pcDNA3.1/Hygro-hNox4 (COS-Nox4 cells). Western blot experiments were performed to validate the expression of Nox4 as we reported previously. Twenty-four hours after transfection, cells were harvested by incubating with 0.05% trypsin/EDTA for 5 min at 37°C. Following addition of DMEM/10% FBS to neutralize the trypsin, the cells were pelleted by centrifugation at 1000 ×g for 5 min at 4°C and used for the experiments.\nH2O2 production was quantified in lysed COS-Nox4 cells as described previously. […] COS-Nox4 and COS-22 cells were suspended to a concentration of 5 × 10^7 cells/mL in ice-cold disruption buffer (PBS containing 0.1 mM EDTA, 10% glycerol, protease inhibitor cocktail, and 0.1 mM PMSF). The cells were lysed by five freeze/thaw cycles and passed through a 30-gauge needle five times to further lyse the cells. Throughout all these procedures, extreme care was taken to maintain the lysate at a temperature close to 0°C. Incubation of COS-Nox4 cell lysate (10 μg/100 μL) with peptides was performed in assay buffer (25 mM Hepes, pH 7.4, containing 120 mM NaCl, 3 mM KCl, 1 mM MgCl2, 25 μM FAD, 0.1 mM Amplex Red, and 0.32 U/mL of HRP) for 15 or 60 min at room temperature on an orbital shaker (120 movements/min), before the addition of 36 μM NADPH, to initiate H2O2 production. […] Fluorescence measurements were made using a Biotek Synergy 4 Hybrid Multi-Mode Microplate Reader (excitation wavelength: 560 nm; emission wavelength: 590 nm). A standard curve of known H2O2 concentrations was developed using the Amplex Red assay (as per the manufacturer's instructions) and was used to quantify H2O2 production in lysed COS-Nox4 cells. The reaction was monitored at room temperature for 40 min. The emission increase was linear during this interval. The rate of H2O2 production was interpolated from the standard curve and is […] nmol H2O2/min/mg protein. The effect of a peptide on Nox4-derived H2O2 production was expressed as percent inhibition of Nox4, which was calculated by considering H2O2 production by control mixtures in the absence of peptide as 100%."}, "Nox2": {"system": "Nox2", "settings": "ref [8]; cited from earlier work", "source_text": "With this in mind, in the current study, we tested whether application of a peptide mimic (B90–98) from the variable region of Nox4 B-loop interferes with the activity of Nox4. An important premise for this work was ..."}}}
{"compound": "B77–91: 15-mer peptide from the Nox4 B-loop, residues 77–91 (RTLLAYLRGSQKVPS; UniProt Q9NPH5 77-91, looked up, fragment)", "values": [{"measurement": "inhibition of H2O2 production (Nox4 activity)", "setting": "Nox4; Amplex Red", "value": "did not inhibit"}]}
{"compound": "C570–578: nonameric Nox4 C-terminal tail peptide, residues 570–578 (FEYNKESFS; UniProt Q9NPH5 570-578, looked up, fragment)", "values": [{"measurement": "effect on Nox4 activity (H2O2 production)", "setting": "Nox4; Amplex Red", "value": "did not affect"}]}
{"compound": "C560–567: octameric Nox4 C-terminal tail peptide, residues 560–567 (SNQNNSYG; UniProt Q9NPH5 560-567, looked up, fragment)", "values": [{"measurement": "effect on Nox4 activity (H2O2 production)", "setting": "Nox4; Amplex Red", "value": "did not affect"}]}
{"compound": "B90–98: nonamer peptide mimic from the variable region of Nox4 B-loop, residues 90–98 (PSRRTRRLL; UniProt Q9NPH5 90-98, looked up, fragment)", "values": [{"measurement": "inhibition of Nox4-derived H2O2 production", "setting": "Nox4; COS-Nox4 cell lysate preincubated with peptide 0.1-100 μM for 15 min at 24°C, 36 μM NADPH, Amplex Red, mean of 3 experiments (Figure 1(d))", "value": "did not inhibit"}]}
{"compound": "C565–572: octameric Nox4 C-terminal tail peptide, residues 565–572 (SYGTRFEY; UniProt Q9NPH5 565-572, looked up, fragment)", "values": [{"measurement": "effect on Nox4 activity (H2O2 production)", "setting": "Nox4; Amplex Red", "value": "did not affect"}]}
{"compound": "PSRRTRELL [R96E mutant version of B90–98, R96E mutant version of B90–98 (…)]", "values": [{"measurement": "inhibition of Nox4 activity (H2O2 production)", "setting": "Nox4; COS-Nox4 cell lysate preincubated with peptide 0.3 to 30 μM for 15 min at 24°C, Amplex Red, mean of 3 experiments (Figure 1(e))", "value": "did not inhibit"}]}
{"compound": "B82–96: 15-mer peptide from the Nox4 B-loop, residues 82–96 (YLRGSQKVPSRRTRR; UniProt Q9NPH5 82-96, looked up, fragment)", "values": [{"measurement": "inhibition of H2O2 production (Nox4 activity)", "setting": "Nox4; Amplex Red", "value": "did not inhibit"}]}
{"compound": "C555–562: octameric Nox4 C-terminal tail peptide, residues 555–562 (TLHKLSNQ; UniProt Q9NPH5 555-562, looked up, fragment)", "values": [{"measurement": "effect on Nox4 activity (H2O2 production)", "setting": "Nox4; Amplex Red", "value": "did not affect"}]}
{"compound": "B92–106: 15-mer peptide from the Nox4 B-loop, residues 92–106 (RRTRRLLDKSRTFHI; UniProt Q9NPH5 92-106, looked up, fragment)", "values": [{"measurement": "inhibition of H2O2 production (Nox4 activity)", "setting": "Nox4; Amplex Red", "value": "did not inhibit"}]}
{"compound": "c1ccc2c(c1)[I+]c1ccccc1-2", "note": "[DPI, diphenyleneiodonium chloride, reference compound]", "values": [{"measurement": "inhibition of Nox4-dependent activity (rate of H2O2 generation)", "setting": "Nox4; COS-Nox4 cell lysate, DPI 50 μM, 36 μM NADPH, Amplex Red/HRP, monitored at 24°C for 40 min, mean of 3 experiments", "value": "~ 90%"}]}
{"compound": "WAMWAN [p22 WT 6–11]", "values": [{"measurement": "inhibition of Nox4 activity (Nox4-derived H2O2 production)", "setting": "Nox4; Amplex Red", "value": "did not inhibit"}]}
{"compound": "RAMRAN [p22 W6/9R, p22phox 6–11 peptide with tryptophans mutated to arginine (RAMRAN)]", "values": [{"measurement": "inhibition of Nox4 activity (Nox4-derived H2O2 production)", "setting": "Nox4; Amplex Red", "value": "did not inhibit"}]}
{"compound": "Nox2ds: peptide mimicking the B-loop region of Nox2 (amino acids 86–94), earlier work of the authors (CSTRVRRQL; UniProt P04839 86-94, looked up, fragment)", "values": [{"measurement": "inhibition of Nox2-derived O2•− production", "setting": "Nox2", "value": "selectively and potently inhibits"}]}
